Values of other authors as cited in US6531463B1, “Method for producing a fat mixture” (Spice Sciences Oy, priority 1998, dated 2003).

Legend:
[1] = system: absorption of cholesterol; conditions: for decrease of the absorption of cholesterol: nine adult patients, 5 days, 500 mg of cholesterol, 1 gram of β-sitosterol or 2 grams of β-sitosteryl oleate
serum cholesterol = conditions: in vivo
[2] = administered orally
cholesterol levels [3] = conditions: added to the feed of cholesterol fed chicken
[4] = system: cholesterol levels, atherogenesis; conditions: added to the feed of cholesterol fed rabbits
[5] = system: absorption of cholesterol
cholesterol levels [6] = conditions: preparations studied in 1950's and 1960's

Molecule: CC[C@H](CC[C@@H](C)[C@H]1CC[C@H]2[C@@H]3CC=C4C[C@@H](O)CC[C@]4(C)[C@H]3CC[C@]12C)C(C)C [β-sitosterol, stigmasta-5-en-3β-ole]
- reduction of the absorption of cholesterol from food ([1]; 1 gram of β-sitosterol, food containing 500 mg of cholesterol): 42%
- decrease of the absorption of cholesterol [1]: 42%
- lowering of the LDL-cholesterol level (serum cholesterol): 19%
- lowering of the total serum cholesterol level (serum cholesterol): 10-15%
- proportion absorbed [2]: less than 5%
- cholesterol levels (cholesterol levels [3]): cholesterol levels were lowered
- atherogenesis [4]: prevented atherogenesis
- cholesterol levels [4]: cholesterol levels were lowered

Molecule: CCCCCCCC/C=C\CCCCCCCC(=O)O[C@H]1CC[C@@]2(C)C(=CC[C@H]3[C@@H]4CC[C@H]([C@H](C)CC[C@@H](CC)C(C)C)[C@@]4(C)CC[C@@H]32)C1 [β-sitoteryl oleate, β-sitosteryl oleate]
- decrease of the absorption of cholesterol [1]: 33%

Molecule: sitosterol
- absorption of cholesterol ([5]; female rats (Uchita et al.)): inhibits absorption of cholesterol
- cholesterol balance in plasma and liver ([5]; female rats (Uchita et al.)): lowers cholesterol balance in plasma and liver
- inhibition of absorption of cholesterol ([5]; rats (Vahouny et al.)): 54%
- lowering of cholesterol levels (cholesterol levels [6]): about 10%
